Reference: PubChem BioAssay (NCI)
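Interpolation was linear, between the two tested concentrations surrounding the appropriate level; five concentrations were tested over 48 hours in 96-well plates. GI50 is the concentration that inhibits growth by half. TGI denotes the concentration required for complete inhibition of growth.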

How the values were obtained:
Experiment in all cases: DTP human tumour cell line panel, 48 h
[1] = tested on: 786-0 renal
[2] = tested on: A498 renal
[3] = tested on: A549 NSCLC
[4] = tested on: ACHN renal
[5] = tested on: BT-549 breast
[6] = tested on: CAKI-1 renal
[7] = tested on: CCRF-CEM leukemia
[8] = tested on: COLO 205 colon
[9] = tested on: DU-145 prostate
[10] = tested on: HCC-2998 colon
[11] = tested on: HCT-116 colon
[12] = tested on: HCT-15 colon
[13] = tested on: HL-60(TB) leukemia
[14] = tested on: HOP-62 NSCLC
[15] = tested on: HOP-92 NSCLC
[16] = tested on: HS 578T breast
[17] = tested on: HT29 colon
[18] = tested on: IGROV1 ovarian
[19] = tested on: K-562 leukemia
[20] = tested on: KM12 colon
[21] = tested on: LOX IMVI melanoma
[22] = tested on: M14 melanoma
[23] = tested on: MALME-3M melanoma
[24] = tested on: MCF7 breast
[25] = tested on: MDA-MB-231 breast
[26] = tested on: MDA-MB-435
[27] = tested on: MOLT-4 leukemia
[28] = tested on: NCI-H226 lung
[29] = tested on: NCI-H23 lung
[30] = tested on: NCI-H460 lung
[31] = tested on: NCI-H522 lung
[32] = tested on: NCI/ADR-RES ovarian
[33] = tested on: OVCAR-3 ovarian
[34] = tested on: OVCAR-4 ovarian
[35] = tested on: OVCAR-5 ovarian
[36] = tested on: OVCAR-8 ovarian
[37] = tested on: PC-3 prostate
[38] = tested on: RPMI-8226 leukemia
[39] = tested on: RXF 393 renal
[40] = tested on: SF-268 CNS
[41] = tested on: SF-295 CNS
[42] = tested on: SF-539 CNS
[43] = tested on: SK-MEL-2 melanoma
[44] = tested on: SK-MEL-28 melanoma
[45] = tested on: SK-MEL-5 melanoma
[46] = tested on: SK-OV-3 ovarian
[47] = tested on: SN12C renal
[48] = tested on: SNB-19 CNS
[49] = tested on: SNB-75 CNS
[50] = tested on: SR leukemia
[51] = tested on: SW-620 colon
[52] = tested on: T-47D breast
[53] = tested on: TK-10 renal
[54] = tested on: U251 CNS
[55] = tested on: UACC-257 melanoma
[56] = tested on: UACC-62 melanoma
[57] = tested on: UO-31 renal

COc1cccc(C(=O)c2sc(Nc3ccc(N4CCN(C(C)C)CC4)cc3)nc2N)c1
GI50 [1]: 1.61 µM | TGI [1]: 5.76 µM | GI50 [2]: 2.33 µM | TGI [2]: 8.24 µM | GI50 [3]: 1.22 µM | TGI [3]: 12.5 µM | GI50 [4]: 0.596 µM | TGI [4]: > 25 µM | GI50 [5]: 3.62 µM | TGI [5]: 7.55 µM | GI50 [6]: 1.01 µM | TGI [6]: > 8.2 µM | GI50 [7]: 0.788 µM | TGI [7]: 4.41 µM | GI50 [8]: 0.694 µM | TGI [8]: 3.53 µM | GI50 [9]: 1.14 µM | TGI [9]: > 25 µM | GI50 [10]: 3.39 µM | TGI [10]: 10.7 µM | GI50 [11]: 0.845 µM | TGI [11]: > 25 µM | GI50 [12]: 0.962 µM | TGI [12]: > 25 µM | GI50 [13]: 0.661 µM | TGI [13]: 2.73 µM | GI50 [14]: 1.57 µM | TGI [14]: 11.9 µM | GI50 [15]: 0.545 µM | TGI [15]: 4.38 µM | GI50 [16]: 2.42 µM | TGI [16]: 11.4 µM | GI50 [17]: 0.997 µM | TGI [17]: 12.8 µM | GI50 [18]: 2.14 µM | TGI [18]: > 18.6 µM | GI50 [19]: 3.22 µM | TGI [19]: > 22.1 µM | GI50 [20]: 0.889 µM | TGI [20]: 7.13 µM | GI50 [21]: 1.22 µM | TGI [21]: 4.88 µM | GI50 [22]: 2.96 µM | TGI [22]: 7.12 µM | GI50 [23]: 3.02 µM | TGI [23]: 7.13 µM | GI50 [24]: 0.473 µM | TGI [24]: 3.38 µM | GI50 [25]: 1.84 µM | TGI [25]: > 19.8 µM | GI50 [26]: 1.63 µM | TGI [26]: 5.68 µM | GI50 [27]: 0.966 µM | TGI [27]: 13.1 µM | GI50 [28]: 1.38 µM | TGI [28]: > 22.8 µM | GI50 [29]: 1.42 µM | TGI [29]: 8.01 µM | GI50 [30]: 0.92 µM | TGI [30]: 7.87 µM | GI50 [31]: 3.94 µM | TGI [31]: 7.86 µM | GI50 [32]: 2.46 µM | TGI [32]: > 22.9 µM | GI50 [33]: 1.52 µM | TGI [33]: 9.18 µM | GI50 [34]: 3.48 µM | TGI [34]: 16.2 µM | GI50 [35]: 0.769 µM | TGI [35]: > 22.4 µM | GI50 [36]: 1.49 µM | TGI [36]: 24.8 µM | GI50 [37]: 0.892 µM | TGI [37]: 10.9 µM | GI50 [38]: 1.34 µM | TGI [38]: 6.52 µM | GI50 [39]: 0.437 µM | TGI [39]: 1.12 µM | GI50 [40]: 1.52 µM | TGI [40]: 5.06 µM | GI50 [41]: 2.55 µM | TGI [41]: 8.83 µM | GI50 [42]: 1.55 µM | TGI [42]: 4.65 µM | GI50 [43]: 1.8 µM | TGI [43]: 5.49 µM | GI50 [44]: 1.85 µM | TGI [44]: 7.05 µM | GI50 [45]: 1.33 µM | TGI [45]: 5.21 µM | GI50 [46]: 5.91 µM | TGI [46]: > 24.1 µM | GI50 [47]: 0.895 µM | TGI [47]: 13.8 µM | GI50 [48]: 1.04 µM | TGI [48]: > 25 µM | GI50 [49]: 2.02 µM | TGI [49]: 5.34 µM | GI50 [50]: 0.478 µM | TGI [50]: > 7.24 µM | GI50 [51]: 0.853 µM | TGI [51]: > 13.1 µM | GI50 [52]: 2.11 µM | TGI [52]: 13.5 µM | GI50 [53]: 1.34 µM | TGI [53]: 9.19 µM | GI50 [54]: 0.949 µM | TGI [54]: 7.1 µM | GI50 [55]: 3.03 µM | TGI [55]: 6.34 µM | GI50 [56]: 2.84 µM | TGI [56]: 6.21 µM | GI50 [57]: 1.4 µM | TGI [57]: 7.16 µM
